Source: patent publication US8852632B2, “Pharmaceutical formulation containing a release rate controlling composition” (Merck Sharp & Dohme Corp., priority 2004, dated 2014)

Assay: Hygroscopicity (vapor sorption analysis)
Type: physicochemical
Description: Hygroscopicity data was obtained on a VTI Symmetrical Vapor Sorption Analyzer Model SGA-1. Data was collected at room temperature from 5-95% relative humidity and back, 5% relative humidity change per step. Equilibrium conditions were 0.01 weight percent change in 5 minutes with a maximum equilibration time of 180 minutes. […] When equilibrated back down to 5% RH, the material returned back to approximately its dry weight.

For `Cc1nnc(C(=O)NC(C)(C)c2nc(C(=O)NCc3ccc(F)cc3)c(O)c(=O)n2C)o1`, the “XRPD analysis after the hygroscopicity experiment (phase stability)” value (after cycling 5-95% relative humidity and back) was “had not changed phases” and the “weight increase (hygroscopicity)” value (equilibrated at 95% RH at 25° C.) was 1.8%.
